Here are results for 7 compounds from publication PMC6311893, “Computational prediction of plasma protein binding of cyclic peptides from small molecule experimental data using sparse modeling techniques” (BMC Bioinformatics, 2018).

Positions of bridges follow the written chain, without caps; N, C: chain ends. Residues, ends and D or L forms follow the SMILES beside them.

Series [1] can be described thus: in vitro. Type of series: in vitro ADME. To be noted: human, plasma, Exp. PPB (fb*). On the procedure: (§1) As the number of publicly available data of cyclic peptide drugs is small compared to that of small molecule, we additionally designed and experimented with 16 cyclic peptides composed exclusively of natural amino acids. First, linear peptides were synthesized. Then, circularization was achieved by making a disulfide bond between N-terminal and C-terminal cysteine residues and confirmed by TOF/MS and HPLC analyses. Human PPB values fb were determined by the equilibrium dialysis method. Frozen human plasma was thawed immediately at room temperature. Then, the plasma was centrifuged at 3220 g for 10 min to remove clots and the supernatant was collected into a fresh tube. The working solutions of test compounds were prepared in DMSO at a concentration of 200 μM. Then, 3 μL of the working solution was removed for mixing with 597 μL of human plasma to achieve a final concentration of 1 μM (0.5% DMSO). The plasma samples were vortexed thoroughly. The dialysis membranes (HTD 96a/b Dialysis Membrane Strips MWCO 12-14 K, Cat. #1101, Batch# 1141 (12–17)) were soaked in ultrapure water for 60 min to separate the strips, then in 20% ethanol for 20 min, and finally in the dialysis buffer (100 mM sodium phosphate and 150 mM NaCl) for 20 min. The dialysis apparatus was assembled according to the manufacturer’s instructions. Each cell was filled with the spiked plasma sample and dialyzed against equal volume of the dialysis buffer. The assay was performed in duplicate. The dialysis plate was sealed and incubated in an incubator at 37 °C with 5% CO2 at 100 rpm for 6 h. At the end of incubation, the seal was removed and 50 μL of samples from both buffer and plasma chambers were transferred to wells of a 96-well plate. 50 μL of blank plasma was added to each buffer sample and an equal volume of phosphate buffered saline was supplemented to the collected plasma sample. […] Samples in the plate were vortexed for 5 min and centrifuged at 3220 g for 30 min at 4 °C. Then, the supernatant was transferred to a new 96-well plate with 100 μL or 200 μL water (depending on the LC-MS signal response and peak shape) for LC-MS/MS analysis.

Series [2] concerns human plasma. Briefly: in vitro. To be noted: 6 h, 1 μM. Type of series: in vitro ADME. As to the method: as §1

One may read the fraction unbound as the share of the substance not bound to proteins or other matrix. For the compound `N=C(N)NCCC[C@@H]1NC(=O)[C@@H]2CCCN2C(=O)[C@H](CC(N)=O)NC(=O)[C@H](CCC(N)=O)NC(=O)[C@H](Cc2ccccc2)NC(=O)[C@H](Cc2ccc(O)cc2)NC(=O)[C@@H](N)CSSC[C@@H](C(=O)O)NC(=O)CNC1=O` [Pep.1] (H-CYFQNPRGC-OH; disulfide 1-9), the free fraction (fraction unbound) at 6 h, 1 μM in series [1] was 0.76. Moreover, the “Exp. PPB (fb*)” value in series [2] is recorded as 0.242.
For `CC[C@H](C)[C@@H]1NC(=O)[C@H](Cc2ccc(O)cc2)NC(=O)[C@@H](N)CSSC[C@@H](C(=O)O)NC(=O)CNC(=O)[C@H](CC(C)C)NC(=O)[C@@H]2CCCN2C(=O)[C@H](CC(N)=O)NC(=O)[C@H](CCC(N)=O)NC1=O` [Pep.2] (H-CYIQNPLGC-OH; disulfide 1-9; N-terminus and C-terminus assumed), in series [1], the fraction unbound at 6 h, 1 μM was 0.995.
The same measure, in the same setting: next, `CC(C)[C@@H]1NC(=O)[C@H](CCCCN)NC(=O)[C@H](Cc2c[nH]c3ccccc23)NC(=O)[C@H](C)NC(=O)[C@@H](N)CSSC[C@@H](C(=O)O)NC(=O)[C@H]([C@@H](C)O)NC1=O` [Pep.3] (H-CAWKVTC-OH; disulfide 1-7; N-terminus and C-terminus assumed): 1.
The same measure, in the same setting: the same measure for `C[C@@H]1NC(=O)[C@H](Cc2c[nH]c3ccccc23)NC(=O)[C@H](C)NC(=O)[C@@H]2CCCN2C(=O)[C@H](C)NC(=O)[C@@H](N)CSSC[C@@H](C(=O)O)NC(=O)CNC(=O)[C@H](Cc2c[nH]cn2)NC1=O` [Pep.14] (H-CAPAWAHGC-OH; disulfide 1-9; N-terminus and C-terminus assumed): 0.926; for `N[C@H]1CSSC[C@@H](C(=O)O)NC(=O)[C@H](Cc2ccc(O)cc2)NC(=O)[C@H](Cc2ccc(O)cc2)NC(=O)[C@H](Cc2ccc(O)cc2)NC(=O)[C@H](Cc2ccc(O)cc2)NC(=O)[C@H](Cc2ccc(O)cc2)NC(=O)[C@H](Cc2ccc(O)cc2)NC(=O)[C@H](Cc2ccc(O)cc2)NC1=O` [Pep.8] (H-CYYYYYYYC-OH; disulfide 1-9; N-terminus and C-terminus assumed): 0.145; for `CC(C)C[C@@H]1NC(=O)CNC(=O)[C@H](C)NC(=O)[C@@H](N)CSSC[C@@H](C(=O)O)NC(=O)[C@H](C)NC(=O)[C@H](C)NC(=O)[C@H](CC(C)C)NC(=O)[C@H](C(C)C)NC1=O` [Pep.9] (H-CAGLVLAAC-OH; disulfide 1-9; N-terminus and C-terminus assumed): 1.
Still for that read-out and setting: the same measure for `CC(C)C[C@@H]1NC(=O)[C@H](Cc2ccc(O)cc2)NC(=O)[C@@H](N)CSSC[C@@H](C(=O)O)NC(=O)CNC(=O)[C@H](Cc2c[nH]cn2)NC(=O)[C@H](Cc2ccc(O)cc2)NC(=O)[C@H](CCC(=O)O)NC(=O)[C@H](C)NC1=O` [Pep.13] (H-CYLAEYHGC-OH; disulfide 1-9; N-terminus and C-terminus assumed): 0.651.
